In PubChem BioAssay AID256 (DTP/NCI, 2004) one finds T/C data, which are given here for 16 molecules.

Several values for one entry are separate records, joined by “and”; a condition that tells them apart may be missing. Equal entries are not always repeated. Toxic doses and inconclusive results are not listed.

This experiment deals with CD2F1 mice, L1210 leukemia ip, survival T/C. As to the kind of experiment: NCI In Vivo Anticancer Drug Screen. Data for tumor model L1210 Leukemia (intraperitoneal) in CD2F1 (CDF1) mice. Conditions: higher = longer survival. The method, boiled down:
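Transplantable tumor in mice; compound-treated vs vehicle-treated groups. Read-out = treated/control ratio of the measured endpoint.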

[1] abbreviates: endpoint: mean survival time, dose: 100.0 mg/kg/injection, schedule: Q01DX001 (ip), vehicle: saline with Tween-80.
[2] abbreviates: endpoint: mean survival time, dose: 200.0 mg/kg/injection, schedule: Q01DX001 (ip), vehicle: saline with Tween-80.
The mark [3] stands for this setting: endpoint: mean survival time, dose: 400.0 mg/kg/injection, schedule: Q01DX001 (ip), vehicle: saline with Tween-80.
The mark [4] stands for this setting: endpoint: mean survival time, dose: 100.0 mg/kg/injection, schedule: Q01DX009 (ip), vehicle: Klucel (hydroxypropylcellulose) (HPC).
[5] abbreviates: endpoint: mean survival time, dose: 200.0 mg/kg/injection, schedule: Q01DX009 (ip), vehicle: Klucel (hydroxypropylcellulose) (HPC).
Setting [6] is: endpoint: mean survival time, dose: 400.0 mg/kg/injection, schedule: Q01DX009 (ip), vehicle: Klucel (hydroxypropylcellulose) (HPC).
The mark [7] stands for this setting: endpoint: mean survival time, dose: 0.06 mg/kg/injection, schedule: Q01DX009 (ip), vehicle: water.

In the case of `COC(=O)Nc1nc2ccccc2[nH]1`, the T/C under setting [1] is 98 % of control; the T/C under setting [2] was 91 % of control; the T/C under setting [3] was 96 % of control; the T/C (endpoint: mean survival time, dose: 500.0 mg/kg/injection, schedule: Q04DX003 (ip), vehicle: saline with Tween-80) is 119 % of control; the T/C (endpoint: mean survival time, dose: 600.0 mg/kg/injection, schedule: Q04DX003 (ip), vehicle: saline with Tween-80) was 122 % of control; the T/C (endpoint: mean survival time, dose: 800.0 mg/kg/injection, schedule: Q04DX003 (ip), vehicle: saline with Tween-80) is 111 % of control.
Regarding `Nc1nc(=Nc2ccccc2)n(C2OCC(O)C(O)C2O)c2ccccc12` (centres undefined), the T/C is 94 % of control (endpoint: mean survival time, dose: 12.5 mg/kg/injection, schedule: Q01DX005 (ip), vehicle: distilled water + Tween-80); 94 % of control (endpoint: mean survival time, dose: 25.0 mg/kg/injection, schedule: Q01DX005 (ip), vehicle: distilled water + Tween-80); 93 % of control (endpoint: mean survival time, dose: 50.0 mg/kg/injection, schedule: Q01DX005 (ip), vehicle: distilled water + Tween-80); 90 % of control (endpoint: mean survival time, dose: 100.0 mg/kg/injection, schedule: Q01DX005 (ip), vehicle: distilled water + Tween-80); 86 % of control (endpoint: mean survival time, dose: 200.0 mg/kg/injection, schedule: Q01DX005 (ip), vehicle: distilled water + Tween-80).
Consider `C/C(CCc1cnc2ccccc2c1)=N/NC(N)=O`, for which the T/C (endpoint: mean survival time, dose: 100.0 mg/kg/injection, schedule: Q04DX002 (ip), vehicle: saline with Tween-80) is 96 % of control; the T/C (endpoint: mean survival time, dose: 200.0 mg/kg/injection, schedule: Q04DX002 (ip), vehicle: saline with Tween-80) is 88 % of control; the T/C (endpoint: mean survival time, dose: 400.0 mg/kg/injection, schedule: Q04DX002 (ip), vehicle: saline with Tween-80) was 103 % of control.
On to `COc1ccc2ccccc2c1C1NC(=O)c2ccccc2N1` (centres undefined), for which the T/C was 95 % of control and 102 % of control (endpoint: mean survival time, dose: 12.5 mg/kg/injection, schedule: Q01DX009 (ip), vehicle: Klucel (hydroxypropylcellulose) (HPC)); 101 % of control and 102 % of control (endpoint: mean survival time, dose: 25.0 mg/kg/injection, schedule: Q01DX009 (ip), vehicle: Klucel (hydroxypropylcellulose) (HPC)); 105 % of control and 107 % of control (endpoint: mean survival time, dose: 50.0 mg/kg/injection, schedule: Q01DX009 (ip), vehicle: Klucel (hydroxypropylcellulose) (HPC)); 101 % of control and 104 % of control under setting [4]; 104 % of control and 105 % of control under setting [5]; 119 % of control and 96 % of control under setting [6].
`COC(=O)c1ccc(N=NN(C)COC(C)=O)cc1`: the T/C by setting is: (endpoint: median survival time, dose: 15.0 mg/kg/injection, schedule: Q01DX005 (ip), vehicle: Klucel (hydroxypropylcellulose) (HPC)) 109 % of control; (endpoint: median survival time, dose: 30.0 mg/kg/injection, schedule: Q01DX005 (ip), vehicle: Klucel (hydroxypropylcellulose) (HPC)) 113 % of control; (endpoint: median survival time, dose: 60.0 mg/kg/injection, schedule: Q01DX005 (ip), vehicle: Klucel (hydroxypropylcellulose) (HPC)) 114 % of control; (endpoint: median survival time, dose: 240.0 mg/kg/injection, schedule: Q01DX005 (ip), vehicle: Klucel (hydroxypropylcellulose) (HPC)) 182 % of control.
Regarding `CNC(=O)OC`, the T/C reads like this: (endpoint: mean survival time, dose: 100.0 mg/kg/injection, schedule: Q04DX003 (ip), vehicle: saline) 102 % of control; (endpoint: mean survival time, dose: 200.0 mg/kg/injection, schedule: Q04DX003 (ip), vehicle: saline) 110 % of control; (endpoint: mean survival time, dose: 400.0 mg/kg/injection, schedule: Q04DX003 (ip), vehicle: saline) 108 % of control.
In the case of `CC1=CC(=O)C(C(C)C)CC1=O` (centres undefined), the T/C was 98 % of control (endpoint: mean survival time, dose: 6.25 mg/kg/injection, schedule: Q01DX009 (ip), vehicle: saline with Tween-80); 102 % of control (endpoint: mean survival time, dose: 12.5 mg/kg/injection, schedule: Q01DX009 (ip), vehicle: saline with Tween-80); 95 % of control (endpoint: mean survival time, dose: 25.0 mg/kg/injection, schedule: Q01DX009 (ip), vehicle: saline with Tween-80).
For `CCCN1OC2CC/C=C\CCC2C1c1ccccc1` (centres undefined), the T/C runs as follows: under setting [4], 100 % of control; (endpoint: mean survival time, dose: 100.0 mg/kg/injection, schedule: Q04DX003 (ip), vehicle: other) 101 % of control; under setting [5], 100 % of control; (endpoint: mean survival time, dose: 200.0 mg/kg/injection, schedule: Q04DX003 (ip), vehicle: other) 107 % of control; under setting [6], 88 % of control; (endpoint: mean survival time, dose: 400.0 mg/kg/injection, schedule: Q04DX003 (ip), vehicle: other) 106 % of control.
As for `[Se]=[P+](OC1CCCCC1)OC1CCCCC1`, the T/C is, setting by setting: (endpoint: mean survival time, dose: 100.0 mg/kg/injection, schedule: Q01DX001 (ip), vehicle: saline) 90 % of control; (endpoint: mean survival time, dose: 200.0 mg/kg/injection, schedule: Q01DX001 (ip), vehicle: saline) 92 % of control; (endpoint: mean survival time, dose: 400.0 mg/kg/injection, schedule: Q01DX001 (ip), vehicle: saline) 92 % of control.
Consider `CCC1=C[C@H]2CN(CCc3c([nH]c4ccccc34)[C@@](C(=O)OC)(c3cc4c(cc3OC)N(C)[C@H]3[C@@](O)(C(=O)NC)[C@H](OC(C)=O)[C@]5(CC)C=CCN6CC[C@]43[C@@H]65)C2)C1`, for which the T/C reads like this: (endpoint: mean survival time, dose: 0.03 mg/kg/injection, schedule: Q01DX009 (ip), vehicle: water) 101 % of control; under setting [7], 111 % of control.
`COc1cccc2c1C(=O)c1c(O)c3c(c(O)c1C2=O)C[C@@](O)(/C(C)=N/NC(=O)c1ccc(-c2ccccc2)cc1)C[C@@H]3OC1CC(N)C(O)C(C)O1` (some centres undefined): the T/C under setting [7] was 104 % of control; the T/C (endpoint: mean survival time, dose: 0.13 mg/kg/injection, schedule: Q01DX009 (ip), vehicle: water) was 103 % of control; the T/C (endpoint: mean survival time, dose: 0.25 mg/kg/injection, schedule: Q01DX009 (ip), vehicle: water) was 114 % of control; the T/C (endpoint: mean survival time, dose: 0.5 mg/kg/injection, schedule: Q01DX009 (ip), vehicle: water) was 117 % of control; the T/C (endpoint: mean survival time, dose: 1.0 mg/kg/injection, schedule: Q01DX009 (ip), vehicle: water) is 115 % of control; the T/C (endpoint: mean survival time, dose: 2.0 mg/kg/injection, schedule: Q01DX009 (ip), vehicle: water) was 122 % of control. The T/C was 111 % of control (endpoint: mean survival time, dose: 4.0 mg/kg/injection, schedule: Q01DX009 (ip), vehicle: water); 117 % of control (endpoint: mean survival time, dose: 8.0 mg/kg/injection, schedule: Q01DX009 (ip), vehicle: water); 88 % of control (endpoint: mean survival time, dose: 16.0 mg/kg/injection, schedule: Q01DX009 (ip), vehicle: water).
Turning to `Fc1c(F)c(F)c(Nc2c(F)c(F)c3c(F)c(F)c(F)c(F)c3c2F)c(F)c1F`, the T/C under setting [1] was 98 % of control, the T/C under setting [2] is 96 % of control and the T/C under setting [3] was 98 % of control.
For `CCOC(=O)NCC[N+](C)(C)C`, the T/C runs as follows: (endpoint: mean survival time, dose: 6.25 mg/kg/injection, schedule: Q04DX003 (ip), vehicle: saline) 100 % of control; (endpoint: mean survival time, dose: 12.5 mg/kg/injection, schedule: Q04DX003 (ip), vehicle: saline) 102 % of control; (endpoint: mean survival time, dose: 25.0 mg/kg/injection, schedule: Q04DX003 (ip), vehicle: saline) 105 % of control.
In the case of `CCS(=O)(=O)/C=C(\I)C(C)(C)C`, the T/C is, setting by setting: (endpoint: mean survival time, dose: 100.0 mg/kg/injection, schedule: Q01DX009 (ip), vehicle: saline with Tween-80) 97 % of control; (endpoint: mean survival time, dose: 100.0 mg/kg/injection, schedule: Q04DX003 (ip), vehicle: saline with Tween-80) 98 % of control; (endpoint: mean survival time, dose: 200.0 mg/kg/injection, schedule: Q01DX009 (ip), vehicle: saline with Tween-80) 102 % of control; (endpoint: mean survival time, dose: 200.0 mg/kg/injection, schedule: Q04DX003 (ip), vehicle: saline with Tween-80) 102 % of control; (endpoint: mean survival time, dose: 400.0 mg/kg/injection, schedule: Q01DX009 (ip), vehicle: saline with Tween-80) 100 % of control; (endpoint: mean survival time, dose: 400.0 mg/kg/injection, schedule: Q04DX003 (ip), vehicle: saline with Tween-80) 95 % of control.
`c1ccc(C2NC2c2ccccc2)cc1` (centres undefined): the T/C was 100 % of control (endpoint: median survival time, dose: 50.0 mg/kg/injection, schedule: Q04DX002 (ip), vehicle: saline with Tween-80); 100 % of control (endpoint: median survival time, dose: 100.0 mg/kg/injection, schedule: Q04DX002 (ip), vehicle: saline with Tween-80); 100 % of control (endpoint: median survival time, dose: 200.0 mg/kg/injection, schedule: Q04DX002 (ip), vehicle: saline with Tween-80); 100 % of control (endpoint: median survival time, dose: 400.0 mg/kg/injection, schedule: Q04DX002 (ip), vehicle: saline with Tween-80).
For `Cc1cc(CBr)c(O)c(CBr)c1`, the T/C is 101 % of control (endpoint: mean survival time, dose: 25.0 mg/kg/injection, schedule: Q01DX009 (ip), vehicle: other); 93 % of control (endpoint: mean survival time, dose: 50.0 mg/kg/injection, schedule: Q01DX009 (ip), vehicle: other); 104 % of control (endpoint: mean survival time, dose: 100.0 mg/kg/injection, schedule: Q01DX009 (ip), vehicle: other).
